# According to patent publication US20100093702A1, “METHYLENE AMINES OF THIENO[2,3-d]PYRIMIDINE AND THEIR USE AS ADENOSINE A2a RECEPTOR ANTAGONISTS” (priority 2008, published 2010):
# pKi: −log10 of the molar value.
# How the values were obtained:
# [1] = target: T1, human adenosine A2a receptor (Homo sapiens, UniProt P29274); test: Adenosine A2a Receptor Functional Assay (A2AGAL2); type: cell-based; conditions: CHO-K1 cells, cAMP inducible beta-galactosidase reporter, 15 nM NECA agonist challenge
# T1 construct: expressed in transfected cells; host or cells: CHO-K1
# Experimental: Adenosine A2a Receptor Functional Assay (A2AGAL2)
# To initiate the functional assay, cryopreserved CHO-K1 cells overexpressing the human adenosine A2a receptor and containing a cAMP inducible beta-galactosidase reporter gene were thawed, centrifuged, DMSO containing media removed, and then seeded with fresh culture media into clear 384-well tissue culture treated plates (BD #353961) at a concentration of 10K cells/well. Prior to assay, these plates were cultured for two days at 37° C., 5% CO2, 90% Rh. On the day of the functional assay, culture media was removed and replaced with 45 uL assay medium (Hams/F-12 Modified (Mediatech # 10-080CV) supplemented w/0.1% BSA). Test compounds were diluted and 11 point curves created at a 1000× concentration in 100% DMSO. Immediately after addition of assay media to the cell plates, 50 nL of the appropriate test compound antagonist or agonist control curves were added to cell plates using a Cartesian Hummingbird. Compound curves were allowed to incubate at room temperature on cell plates for approximately 15 minutes before addition of a 15 nM NECA (Sigma E2387) agonist challenge (5 uL volume). A control curve of NECA, a DMSO/Media control, and a single dose of Forskolin (Sigma F3917) were also included on each plate. After additions, cell plates were allowed to incubate at 37° C., 5% CO2, 90% Rh for 5.5-6 hours. After incubation, media was removed, and cell plates were washed 1×50 uL with DPBS w/o Ca & Mg (Mediatech 21-031-CV). Into dry wells, 20 uL of 1× Reporter Lysis Buffer (Promega E3971 (diluted in dH2O from 5× stock)) was added to each well and plates frozen at −20° C. overnight. For β-galactosidase enzyme calorimetric assay, plates were thawed out at room temperature and 20 μL 2× assay buffer (Promega) was added to each well. Color was allowed to develop at 37° C., 5% CO2, 90% Rh for 1-1.5 h or until reasonable signal appeared. The calorimetric reaction was stopped with the addition of 60 μL/well 1M sodium carbonate. Plates were counted at 405 nm on a SpectraMax Microplate Reader (Molecular Devices). Data was analyzed in Microsoft Excel and IC/EC50 curves were fit using a standardized macro.
# [2] = target: T2, human adenosine A1 receptor (Homo sapiens, UniProt P30542); test: Adenosine A1 Receptor Functional Assay (A1GAL2); type: cell-based; conditions: CHO-K1 cells, cAMP inducible beta-galactosidase reporter, 4 nM r-PIA/1 uM Forskolin challenge
# T2 construct: expressed in transfected cells; host or cells: CHO-K1
# T2 sequence (P30542 1-326): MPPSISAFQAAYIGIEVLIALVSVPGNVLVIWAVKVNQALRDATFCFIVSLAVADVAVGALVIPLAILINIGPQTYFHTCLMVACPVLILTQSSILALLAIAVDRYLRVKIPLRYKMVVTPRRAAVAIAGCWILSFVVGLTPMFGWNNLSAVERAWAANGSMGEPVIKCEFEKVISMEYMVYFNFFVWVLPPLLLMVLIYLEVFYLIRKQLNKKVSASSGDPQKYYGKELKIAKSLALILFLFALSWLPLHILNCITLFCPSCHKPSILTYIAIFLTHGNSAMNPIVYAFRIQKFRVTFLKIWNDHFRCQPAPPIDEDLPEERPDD
# Experimental: Adenosine A1 Receptor Functional Assay (A1GAL2)
# To initiate the functional assay, cryopreserved CHO-K1 cells overexpressing the human adenosine A1 receptor and containing a cAMP inducible beta-galactosidase reporter gene were thawed, centrifuged, DMSO containing media removed, and then seeded with fresh culture media into clear 384-well tissue culture treated plates (BD #353961) at a concentration of 10K cells/well. Prior to assay, these plates were cultured for two days at 37° C., 5% CO2, 90% Rh. On the day of the functional assay, culture media was removed and replaced with 45 uL assay medium (Hams/F-12 Modified (Mediatech # 10-080CV) supplemented w/0.1% BSA). Test compounds were diluted and 11 point curves created at a 1000× concentration in 100% DMSO. Immediately after addition of assay media to the cell plates, […] of the appropriate test compound antagonist or agonist control curves were added to cell plates using a Cartesian Hummingbird. Compound curves were allowed to incubate at room temperature on cell plates for approximately 15 minutes before addition of a 4 nM r-PIA (Sigma P4532)/1 uM Forskolin (Sigma F3917) agonist challenge (5 uL volume). A control curve of r-PIA in 1 uM Forskolin, a DMSO/Media control, and a single dose of Forskolin were also included on each plate. After additions, cell plates were allowed to incubate at 37° C., 5% CO2, 90% Rh for 5.5-6 hours. After incubation, media was removed, and cell plates were washed 1×50 uL with DPBS w/o Ca & Mg (Mediatech 21-031-CV).
# Into dry wells, 20 uL of 1× Reporter Lysis Buffer (Promega E3971 (diluted in dH2O from 5× stock)) was added to each well and plates frozen at −20° C. overnight. For β-galactosidase enzyme calorimetric assay, plates were thawed out at room temperature and 20 μL 2× assay buffer (Promega) was added to each well. Color was allowed to develop at 37° C., 5% CO2, 90% Rh for 1-1.5 h or until reasonable signal appeared. The calorimetric reaction was stopped with the addition of 60 μL/well 1M sodium carbonate. Plates were counted at 405 nm on a SpectraMax Microplate Reader (Molecular Devices). Data was analyzed in Microsoft Excel and IC/EC50 curves were fit using a standardized macro.
# [3] = target: T3, human A2a adenosine receptor (Homo sapiens, UniProt P29274); test: Ligand Binding Assay for Adenosine A2a Receptor (A2A-B); conditions: HEK293 plasma membrane, radioligand [3H]CGS21680
# T3 construct: purchased PerkinElmer RB-HA2a; host or cells: HEK293
# Experimental: Ligand Binding Assay for Adenosine A2a Receptor
# Ligand binding assay of adenosine A2a receptor was performed using plasma membrane of HEK293 cells containing human A2a adenosine receptor (PerkinElmer, RB-HA2a) and radioligand [^3H]CGS21680 (PerkinElmer, NET 1021). Assay was set up in 96-well polypropylene plate in total volume of 200 μL by sequentially adding 20 μL 1:20 diluted membrane, 130 μL assay buffer (50 mM Tris.HCl, pH7.4 10 mM MgCl2, 1 mM EDTA) containing [^3H] CGS21680, 50 μL diluted compound (4×) or vehicle control in assay buffer. Nonspecific binding was determined by […] NECA. Reaction was carried out at room temperature for 2 hours before filtering through 96-well GF/C filter plate pre-soaked in 50 mM Tris.HCl, pH7.4 containing 0.3% polyethylenimine. Plates were then washed 5 times with cold 50 mM Tris.HCl, pH7.4, dried and sealed at the bottom. Microscintillation fluid 30 μL was added to each well and the top sealed. Plates were counted on Packard Topcount for [^3H]. Data was analyzed in Microsoft Excel and GraphPad Prism programs. (Varani, K.; Gessi, S.; Dalpiaz, A.; Borea, P. A. British Journal of Pharmacology, 1996, 117, 1693)
# T3 sequence (P29274 whole entry): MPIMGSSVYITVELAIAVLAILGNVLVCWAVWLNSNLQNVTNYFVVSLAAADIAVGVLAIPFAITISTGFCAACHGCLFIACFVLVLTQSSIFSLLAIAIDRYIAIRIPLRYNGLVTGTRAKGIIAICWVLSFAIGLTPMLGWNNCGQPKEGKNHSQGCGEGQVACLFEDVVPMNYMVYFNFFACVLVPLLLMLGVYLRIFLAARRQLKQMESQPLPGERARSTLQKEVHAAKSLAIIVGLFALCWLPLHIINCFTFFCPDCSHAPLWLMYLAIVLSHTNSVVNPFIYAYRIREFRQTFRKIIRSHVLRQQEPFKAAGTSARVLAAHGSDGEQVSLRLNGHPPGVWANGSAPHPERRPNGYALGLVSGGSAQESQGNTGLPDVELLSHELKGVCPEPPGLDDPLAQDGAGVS
# T1 sequence (P29274 whole entry): as above
Compound,pKi [1],pKi [2],pKi [3]
"Nc1nc(-c2ccc(Br)o2)nc2sc(CN3CCOCC3)cc12 [Example 7, 2-(5-Bromo-furan-2-yl)-6-morpholin-4-ylmethyl-thieno[2,3-d]pyrimidin-4-ylamine]",7.74,6.16,6.69
"Nc1nc(-c2ccco2)nc2sc(CN3CCCC3)cc12 [Example 28, 2-Furan-2-yl-6-pyrrolidin-1-ylmethyl-thieno[2,3-d]pyrimidin-4-ylamine]",7.55,5.19,7.84
"Nc1nc(-c2ccco2)nc2sc(CNC3CC3)cc12 [Example 29, 6-Cyclopropylaminomethyl-2-furan-2-yl-thieno[2,3-d]pyrimidin-4-ylamine]",7.44,5.72,7.03
"Nc1nc(-c2cccs2)nc2sc(CN3CCCC3)cc12 [Example 30, 6-Pyrrolidin-1-ylmethyl-2-thiophen-2-yl-thieno[2,3-d]pyrimidin-4-ylamine]",6.94,< 5.00,6.86
"CCN(CC)Cc1cc2c(N)nc(-c3ccco3)nc2s1 [Example 31, 6-Diethylaminomethyl-2-furan-2-yl-thieno[2,3-d]pyrimidin-4-ylamine]",7.26,5.67,6.86
"Nc1nc(-c2ccco2)nc2sc(CNC3CCCCC3)cc12 [Example 32, 6-Cyclohexylaminomethyl-2-furan-2-yl-thieno[2,3-d]pyrimidin-4-ylamine]",6.77,5.61,6.85
"COCCNCc1cc2c(N)nc(-c3ccco3)nc2s1 [Example 33, 2-Furan-2-yl-6-[(2-methoxy-ethylamino)-methyl]-thieno[2,3-d]pyrimidin-4-ylamine]",,,6.67
"Cc1ccc(-c2nc(N)c3cc(CN4CCCCC4)sc3n2)o1 [Example 34, 2-(5-Methyl-furan-2-yl)-6-piperidin-1-ylmethyl-thieno[2,3-d]pyrimidin-4-ylamine]",7.55,6.22,7.73
"Nc1nc(-c2ccc(Br)o2)nc2sc(CN3CCCC3)cc12 [Example 35, 2-(5-Bromo-furan-2-yl)-6-pyrrolidin-1-ylmethyl-thieno[2,3-d]pyrimidin-4-ylamine]",7.66,6.10,7.82
"Cc1ccc(-c2nc(N)c3cc(CN4CCN(C)CC4)sc3n2)o1 [Example 36, 2-(5-Methyl-furan-2-yl)-6-(4-methyl-piperazin-1-ylmethyl)-thieno[2,3-d]pyrimidin-4-ylamine]",,,6.43
"Cc1ccc(-c2nc(N)c3cc(CN4CCOCC4)sc3n2)o1 [Example 38, 2-(5-Methyl-furan-2-yl)-6-morpholin-4-ylmethyl-thieno[2,3-d]pyrimidin-4-ylamine]",7.50,5.98,7.48
"Cc1ccc(-c2nc(N)c3cc(CN4CCCC4)sc3n2)o1 [Example 39, 2-(5-Methyl-furan-2-yl)-6-pyrrolidin-1-ylmethyl-thieno[2,3-d]pyrimidin-4-ylamine]",7.59,6.21,7.96
"Cc1ccc(-c2nc(N)c3cc(CN4CCC(O)C4)sc3n2)o1 (stereo not drawn) [Example 40, 1-[4-Amino-2-(5-methyl-furan-2-yl)-thieno[2,3-d]pyrimidin-6-ylmethyl]-pyrrolidin-3-ol]",,,6.43
"Cc1ccc(-c2nc(N)c3cc(CN4CCc5ccccc5C4)sc3n2)o1 [Example 41, 6-(3,4-Dihydro-1H-isoquinolin-2-ylmethyl)-2-(5-methyl-furan-2-yl)-thieno[2,3-d]pyrimidin-4-ylamine]",6.69,5.48,6.73
"Nc1nc(-c2ccco2)nc2sc(CN3CCOCC3)cc12 [Example 42, 2-Furan-2-yl-6-morpholin-4-ylmethyl-thieno[2,3-d]pyrimidin-4-ylamine]",7.28,4.74,7.06
"C[C@@H]1CCC[C@H](C)N1Cc1cc2c(N)nc(-c3ccco3)nc2s1 [Example 44, 6-(2,6-Dimethyl-piperidin-1-ylmethyl)-2-furan-2-yl-thieno[2,3-d]pyrimidin-4-ylamine]",8.25,7.00,8.85
"Nc1nc(-c2ccco2)nc2sc(CN3CCC(=O)CC3)cc12 [Example 45, 1-(4-Amino-2-furan-2-yl-thieno[2,3-d]pyrimidin-6-ylmethyl)-piperidin-4-one]",6.64,5.57,6.72
"CN(C)Cc1cc2c(N)nc(-c3ccco3)nc2s1 [Example 46, 6-Dimethylaminomethyl-2-furan-2-yl-thieno[2,3-d]pyrimidin-4-ylamine]",6.84,5.45,7.05
"Nc1nc(-c2ccco2)nc2sc(CN3CCC(F)C3)cc12 (stereo not drawn) [Example 51, 6-(3-Fluoro-pyrrolidin-1-ylmethyl)-2-furan-2-yl-thieno[2,3-d]pyrimidin-4-ylamine]",8.01,5.87,8.23
"Nc1nc(-c2ccco2)nc2sc(CN3CCC(O)CC3)cc12 [Example 52, 1-(4-Amino-2-furan-2-yl-thieno[2,3-d]pyrimidin-6-ylmethyl)-piperidin-4-ol]",6.53,5.40,6.66
"Nc1nc(-c2ccco2)nc2sc(CN3CC[C@H](F)C3)cc12 [Example 53, 6-(3-Fluoro-pyrrolidin-1-ylmethyl)-2-furan-2-yl-thieno[2,3-d]pyrimidin-4-ylamine]",7.91,6.18,7.85
